Source: US7803930B2, “Antisense modulation of apolipoprotein B-expression” (Isis Pharmaceuticals, Inc., priority 2002, dated 2010)
In the oligonucleotide strings, read from the 5' end, every base follows the letter of its sugar. An asterisk marks phosphorothioate; unmarked linkages are phosphodiester. Other units and linkages are bracketed, terminal groups are in braces. A string of capitals states the bases alone. e = 2'-O-(2-methoxyethyl) (MOE); [5mC] = 5-methylcytosine; d = 2'-deoxy (DNA)

Experiments:
[1] = Toxicity in C57BL/6 mice, two weeks (Example 48): liver enzyme levels, body, liver and spleen weight; type: in vivo, mouse; design: Weight BODY / Weight LIVER / Weight SPLEEN: unit not given here; settings: 25 mg/kg i.p. twice a week
Method: C57BL/6 mice were divided into two groups—one group receiving oligonucleotide treatment and control animals receiving saline treatment. After overnight fasting, mice were dosed intraperitoneally twice a week with saline or 25 mg/kg of one of several oligonucleotides for two weeks. The antisense oligonucleotides used in the present study were ISIS 233172 (SEQ ID NO: 835) and ISIS 233175 (SEQ ID NO: 838), both targeted to rabbit apolipoprotein B, and ISIS 281625 (SEQ ID NO: 224), ISIS 301012 (SEQ ID NO: 247), and ISIS 301027 (SEQ ID NO: 262), targeted to human apolipoprotein B. At study termination and forty eight hours after the final injections, animals were sacrificed and evaluated for liver enzyme levels, body weight, liver weight, and spleen weight.

[2] = test system: human apolipoprotein B mRNA; test: Inhibition of apolipoprotein B mRNA by dsRNAs in HepG2 cells; type: cell-based; settings: 150 nM with 3.75 μg/mL LIPOFECTIN
Method: In accordance with the present invention, a series of nucleic acid duplexes comprising the antisense compounds of the present invention and their complements were designed to target apolipoprotein B and are shown in Table 42. All compounds in Table 42 are oligoribonucleotides 20 nucleotides in length with phosphodiester internucleoside linkages (backbones) throughout the compound. The compounds were prepared with blunt ends. […] These sequences are shown to contain uracil (U) but one of skill in the art will appreciate that uracil (U) is generally replaced by thymine (T) in DNA sequences. “Targer site” indicates the first (5′-most) nucleotide number on the particular target sequence to which the compound binds. A subset of the compounds in Table 42 are the RNA equivalents of DNA antisense oligonucleotides described herein, and, where applicable, this is noted by the ISIS # of the DNA oligonucleotide in the column “RNA equivalent of ISIS #”.
The dsRNA compounds in Table 42 were tested for their effects on human apolipoprotein mRNA in HepG2 cells. HepG2 cells were treated with 100 nM of dsRNA compounds mixed with 5 μg/mL LIPOFECTIN (Invitrogen Corporation, Carlsbad, Calif.) for a period of 16 hours. In the same experiment, HepG2 cells were also treated with 150 nM of subset of the antisense oligonucleotides described herein mixed with 3.75 μg/mL LIPOFECTIN; these compounds are listed in Table 43. Control oligonucleotides included ISIS 18078 ([…], SEQ ID NO: 888). ISIS 18078 is a chimeric oligonucleotide (“gapmer”) 20 nucleotides in length, composed of a central “gap” region consisting of 9 2′-deoxynucleotides, which is flanked on the 5′ and 3′ ends by a five-nucleotide “wing” and a six-nucleotide “wing”, respectively. The wings are composed of 2′-methoxyethyl (2′-MOE)nucleotides. The internucleoside (backbone) linkages are phosphorothioate (P═S) throughout the oligonucleotide. All cytidines are 5-methylcytidines. The duplex of ISIS 263188 ([…], SEQ ID NO: 889) and its complement was also used as a control. ISIS 263188 is an oligoribonucleotide 21 nucleotides in length with the 2 nucleotides on the 3′ end being oligodeoxyribonucleotides (TT) and with phosphodiester internucleoside linkages (backbones) throughout the compound.
Cells were treated for 4 hours, after which human apolipoprotein B mRNA expression was measured as described by examples herein. Results were normalized to untreated control cells, which were not treated with LIPOFECTIN or oligonucleotide.

apolipoprotein B protein = test: Apolipoprotein B protein secreted from primary human hepatocytes, ELISA; type: cell-based; settings: 300 nM
apolipoprotein B mRNA = test: High fat fed mice, time-dependent effects and after cessation of dosing (Example 51): apolipoprotein B mRNA in liver; type: in vivo, mouse; settings: for % Inhibition apolipoprotein B mRNA: liver
Method: In a further embodiment of the invention, the inhibition of apolipoprotein B mRNA in mice was compared to liver oligonucleotide concentration, total cholesterol, LDL-cholesterol and HDL-cholesterol. Male C57Bl/6 mice receiving a high fat diet (60% fat) were evaluated over the course of 6 weeks for the effects of treatment with twice weekly intraperitoneal injections of 50 mg/kg ISIS 147764 (SEQ ID NO: 109) or 50 mg/kg of the control oligonucleotide ISIS 141923 (SEQ ID NO: 858). Control animals received saline treatment. Animals were sacrificed after 2 days, 1, 2, 4 and 6 weeks of treatment. Each treatment group at each time point consisted of 8 mice.
Target expression in liver was measured by real-time PCR as described by other examples herein and is expressed as percent inhibition relative to saline treated mice. Total, LDL- and HDL-cholesterol levels were measured by routine clinical analysis using an Olympus Clinical Analyzer (Olympus America Inc., Melville, N.Y.) and are presented in mg/dL. Results from saline-treated animals are shown for comparison. Intact oligonucleotide in liver tissue was measured by capillary gel electrophoresis and is presented as micrograms of oligonucleotide per gram of tissue.
The oligonucleotide treatments described in this example were duplicated to investigate the extent to which effects of ISIS 147764 persist following cessation of treatment. Mice were treated as described, and sacrificed 1, 2, 4, 6 and 8 weeks following the cessation of oligonucleotide treatment.

[3] = LDLr(-/-) mice dose response (Example 44): liver enzyme, cholesterol and triglyceride levels; type: in vivo, mouse; settings: six weeks
Method: LDLr(−/−) mice, purchased from Taconic (Germantown, N.Y.) were used to evaluate antisense oligonucleotides for their potential to lower apolipoprotein B mRNA or protein levels, as well as phenotypic endpoints associated with apolipoprotein B. LDLr(−/−) mice were separated into groups of males and females. LDLr(−/−) mice were dosed intraperitoneally twice a week for six weeks with either 10, 25, or 50 mg/kg of ISIS 147764 (SEQ ID NO: 109) or ISIS 270906 (SEQ ID NO: 856) which is a 4 base mismatch of ISIS 147764, or with saline, or 20 mg/kg of Atorvastatin. At study termination animals were sacrificed and evaluated for several phenotypic markers.

[4] = female LDLr(-/-) mice, 10 mg/kg i.p. twice a week
[5] = female LDLr(-/-) mice, 25 mg/kg i.p. twice a week
[6] = female LDLr(-/-) mice, 50 mg/kg i.p. twice a week
[7] = male LDLr(-/-) mice, 10 mg/kg i.p. twice a week
[8] = male LDLr(-/-) mice, 25 mg/kg i.p. twice a week
[9] = male LDLr(-/-) mice, 50 mg/kg i.p. twice a week

301027 (eG*e[5mC]*eT*e[5mC]*eA*d[5mC]*dT*dG*dT*dA*dT*dG*dG*dT*dT*eT*eT*eA*eT*e[5mC]; antisense) [compound 301027]
Liver Enzymes ALT [1]: 221.3 IU/L | Liver Enzymes AST [1]: 455.3 IU/L | Weight BODY [1]: 21.2 | Weight LIVER [1]: 1.3 | Weight SPLEEN [1]: 0.1 | % Inhibition of apolipoprotein B mRNA [2]: 79%

ISIS 301027: SEQ ID NO: 262, 2′-MOE gapmer targeted to human apolipoprotein B (antisense eG*e[5mC]*eT*e[5mC]*eA*d[5mC]*dT*dG*dT*dA*dT*dG*dG*dT*dT*eT*eT*eA*eT*e[5mC])
levels of liver enzymes relative to saline treatment [1]: drastically increased

113529 (antisense e[5mC]*eT*e[5mC]*eT*eT*dA*d[5mC]*dT*dG*dT*dG*d[5mC]*dT*dG*dT*eG*eG*eA*e[5mC]*eA) [compound 113529]
% Change in apolipoprotein B protein secretion (apolipoprotein B protein; 24 hours): −2% | % Change in apolipoprotein B protein secretion (apolipoprotein B protein; 48 hours): −5%

GTCCCTGAAGATGTCAATGC (2'-MOE gapmer, further chemistry not given here) [ISIS 147764]
time of treatment within which inhibition of apolipoprotein B mRNA occurred (apolipoprotein B mRNA; high fat fed C57Bl/6 mice, 50 mg/kg i.p. twice weekly): ≤ 2 days | persistence of effects (mRNA inhibition, cholesterol lowering) after termination of treatment (apolipoprotein B mRNA; high fat fed C57Bl/6 mice, after 6 weeks of 50 mg/kg twice weekly): up to 8 weeks | cholesterol, triglycerides ([3]; male and female LDLr(-/-) mice, 10, 25 or 50 mg/kg i.p. twice a week): able to lower cholesterol, triglycerides, and mRNA levels in a dose-dependent manner

301012 (eG*e[5mC]*e[5mC]*eT*e[5mC]*dA*dG*dT*d[5mC]*dT*dG*d[5mC]*dT*dT*d[5mC]*eG*e[5mC]*eA*e[5mC]*e[5mC]) [compound 301012]
Liver Enzymes ALT [1]: 21.2 IU/L | Liver Enzymes AST [1]: 50.6 IU/L | Weight BODY [1]: 21.3 | Weight LIVER [1]: 1.1 | Weight SPLEEN [1]: 0.1 | % Inhibition of apolipoprotein B mRNA [2]: 77% | % Change in apolipoprotein B protein secretion (apolipoprotein B protein; 24 hours): −41% | % Change in apolipoprotein B protein secretion (apolipoprotein B protein; 48 hours): −48%

281625 (antisense eA*eG*eG*eT*eT*dA*d[5mC]*d[5mC]*dA*dG*d[5mC]*d[5mC]*dA*d[5mC]*dA*eT*eG*e[5mC]*eA*eG) [compound 281625]
Liver Enzymes ALT [1]: 36.2 IU/L | Liver Enzymes AST [1]: 89.5 IU/L | Weight BODY [1]: 20.9 | Weight LIVER [1]: 1.2 | Weight SPLEEN [1]: 0.1 | % Inhibition of apolipoprotein B mRNA [2]: 79%

147764 (eG*eT*e[5mC]*e[5mC]*e[5mC]*dT*dG*dA*dA*dG*dA*dT*dG*dT*d[5mC]*eA*eA*eT*eG*e[5mC]) [compound 147764]
% Inhibition apolipoprotein B mRNA (apolipoprotein B mRNA; high fat fed male C57Bl/6 mice, 50 mg/kg i.p. twice weekly, treatment period 1 week): 57% | % Inhibition apolipoprotein B mRNA (apolipoprotein B mRNA; high fat fed male C57Bl/6 mice, 50 mg/kg i.p. twice weekly, treatment period 2 weeks): 73% | % Inhibition apolipoprotein B mRNA (apolipoprotein B mRNA; high fat fed male C57Bl/6 mice, 50 mg/kg i.p. twice weekly, treatment period 4 weeks): 82% | % Inhibition apolipoprotein B mRNA (apolipoprotein B mRNA; high fat fed male C57Bl/6 mice, 50 mg/kg i.p. twice weekly, treatment period 6 weeks): 88% | % Inhibition apolipoprotein B mRNA (apolipoprotein B mRNA; high fat fed male C57Bl/6 mice, 50 mg/kg i.p. twice weekly, treatment period 2 days): 50% | % Inhibition apolipoprotein B mRNA (apolipoprotein B mRNA; high fat fed mice, 50 mg/kg i.p. twice weekly, 1 week after cessation of dosing): 82% | % Inhibition apolipoprotein B mRNA (apolipoprotein B mRNA; high fat fed mice, 50 mg/kg i.p. twice weekly, 2 weeks after cessation of dosing): 78% | % Inhibition apolipoprotein B mRNA (apolipoprotein B mRNA; high fat fed mice, 50 mg/kg i.p. twice weekly, 4 weeks after cessation of dosing): 49% | % Inhibition apolipoprotein B mRNA (apolipoprotein B mRNA; high fat fed mice, 50 mg/kg i.p. twice weekly, 6 weeks after cessation of dosing): 37% | % Inhibition apolipoprotein B mRNA (apolipoprotein B mRNA; high fat fed mice, 50 mg/kg i.p. twice weekly, 8 weeks after cessation of dosing): 19% | Lipoproteins CHOL [3, 4]: 269.6 mg/dL | Lipoproteins HDL [3, 4]: 121.0 mg/dL | Lipoproteins LDL [3, 4]: 127.8 mg/dL | Lipoproteins TRIG [3, 4]: 140.8 mg/dL | Liver Enzymes ALT [3, 4]: 27.2 IU/L | Liver Enzymes AST [3, 4]: 82.0 IU/L | Lipoproteins CHOL [3, 5]: 175.8 mg/dL | Lipoproteins HDL [3, 5]: 99.5 mg/dL | Lipoproteins LDL [3, 5]: 68.9 mg/dL | Lipoproteins TRIG [3, 5]: 100.4 mg/dL | Liver Enzymes ALT [3, 5]: 32.2 IU/L | Liver Enzymes AST [3, 5]: 61.4 IU/L | Lipoproteins CHOL [3, 6]: 138.2 mg/dL | Lipoproteins HDL [3, 6]: 92.2 mg/dL | Lipoproteins LDL [3, 6]: 45.9 mg/dL | Lipoproteins TRIG [3, 6]: 98.0 mg/dL | Liver Enzymes ALT [3, 6]: 120.4 IU/L | Liver Enzymes AST [3, 6]: 134.6 IU/L | Lipoproteins CHOL [3, 7]: 314.2 mg/dL | Lipoproteins HDL [3, 7]: 150.0 mg/dL | Lipoproteins LDL [3, 7]: 134.7 mg/dL | Lipoproteins TRIG [3, 7]: 198.6 mg/dL | Liver Enzymes ALT [3, 7]: 29.8 IU/L | Liver Enzymes AST [3, 7]: 57.6 IU/L | Lipoproteins CHOL [3, 8]: 185.0 mg/dL | Lipoproteins HDL [3, 8]: 110.6 mg/dL | Lipoproteins LDL [3, 8]: 66.2 mg/dL | Lipoproteins TRIG [3, 8]: 104.2 mg/dL | Liver Enzymes ALT [3, 8]: 78.8 IU/L | Liver Enzymes AST [3, 8]: 112.6 IU/L | Lipoproteins CHOL [3, 9]: 165.6 mg/dL | Lipoproteins HDL [3, 9]: 107.8 mg/dL | Lipoproteins LDL [3, 9]: 51.2 mg/dL | Lipoproteins TRIG [3, 9]: 113.4 mg/dL | Liver Enzymes ALT [3, 9]: 156.8 IU/L | Liver Enzymes AST [3, 9]: 163.6 IU/L
